Data set [1] relates to voltage-gated chloride channels. To be noted: Torpedo membranes vs rat brain membranes; cited from earlier work.
Data set [2] concerns C. elegans. The data set can be described thus: Toxicity of DIDS on C. elegans (96 well plate). It counts as in vivo, Caenorhabditis elegans. As to the method:
(§1) We determined the toxicity of DIDS to infective juveniles of M. incognita and H. bacteriophora. Infective juveniles were assayed because they represent the only free-living life stage for both nematode species; adults live within their respective hosts and are not amenable to this type of test. Further, the infective juvenile of M. incognita would likely be the target of a nematicide based upon this material. The tests were conducted in either 35 mm Petri dishes or 96 well plates, holding the test material dissolved in DMSO and dispersed into tap water. Each dish was considered a replicate and contained 10-30 nematodes of either species. Each well of the 96-well plates had one nematode.
(§2) To further characterize the nematode-inhibiting effect of a stilbene compound (DIDS), experiments were performed as described above, using a 96 well plate and 10-30 nematodes per well, and using the plant parasite M. incognita and the free-living C. elegans. The results are depicted in Tables 1 and 2.

Data set [3] deals with M. incognita. The experiment in a line: Toxicity of DIDS on M. incognita infective juveniles. Format: in vivo, Meloidogyne incognita. Here is the method: Meloidogyne incognita cultures were maintained on potted tomatoes (c.v. Rutgers) in a greenhouse. Infective juvenile nematodes for analysis were extracted as eggs from infected tomato roots by shaking the roots in 1% bleach for 2 minutes. Eggs were captured in a 500-mesh sieve, rinsed in water and placed in Baerman funnels. When the eggs hatched, the juveniles moved downward in the funnels, and hatched infective juveniles were collected after 48 hours.
as §1
DIDS-H.b.=DIDS-exposed H. bacteriophora; DIDS-M.i.=DIDS-exposed Meloidogyne incognita. DIDS was dissolved in DMSO, and DMSO-M.i.=DMSO-exposed Meloidogyne incognita. Average percentage mortality for each treatment group was calculated from 5 replicates containing 10 nematodes each. Bars are means±SEM.
as §2

Data set [4] concerns Caenorhabditis elegans. Particulars: at 100 ug/ml; cited from earlier work.
Data set [5] concerns Meloidogyne incognita. Particulars: at 100 ug/ml; cited from earlier work.
The test system of data set [6] is H. megidis. To be noted: concentrations up to 200 ug/ml; cited from earlier work.

The values that follow come from US20080188564A1, “Insecticidal and Nematicidal Compositions and Methods of Use” (priority 2004, published 2008).

On to `Cl[C@H]1[C@H](Cl)[C@@H](Cl)[C@@H](Cl)[C@H](Cl)[C@H]1Cl` [lindane], for which the “potency as inhibitor of [35S]TBPS binding, Torpedo membranes relative to rat brain” value in data set [1] was “about 4 fold”.

The LC50 is the concentration that kills 50% of the test population. Low readings indicate greater toxicity, high ones lower toxicity. Regarding `O=S(=O)(O)c1cc(N=C=S)ccc1/C=C/c1ccc(N=C=S)cc1S(=O)(=O)O` [DIDS, trans-4,4′-diisothiocyanatostilbene-2,2′-disulfonic acid], the LC50 in data set [2] (1-day (24 hr)) stood at 196.13 ppm; in data set [2] (2-day (48 hr)), 83.70 ppm; in data set [2] (3-day (72 hr)), 31.53 ppm; in data set [2] (5-day (120 hr)) it was 15.69 ppm; in data set [2] (7-day (168 hr)) it was 10.67 ppm; in data set [3] (1-day (24 hr)), 160.03 ppm. In addition, the LC50 in data set [3] (2-day (48 hr)) is 97.91 ppm; in data set [3] (3-day (72 hr)), 37.84 ppm; in data set [3] (5-day (120 hr)), 17.07 ppm; in data set [3] (7-day (168 hr)) it was 11.58 ppm. The Slope in data set [2] (1-day (24 hr)) is recorded as 1.43 ± 0.35; in data set [2] (2-day (48 hr)), 1.45 ± 0.29; in data set [2] (3-day (72 hr)), 1.87 ± 0.28; in data set [2] (5-day (120 hr)), 2.86 ± 0.36; in data set [2] (7-day (168 hr)) it was 4.57 ± 0.71; in data set [3] (1-day (24 hr)) it was 1.77 ± 0.50. Further, the Slope amounted to 1.52 ± 0.30 in data set [3] (2-day (48 hr)), 1.83 ± 0.30 in data set [3] (3-day (72 hr)), 2.75 ± 0.36 in data set [3] (5-day (120 hr)) and 4.04 ± 0.59 in data set [3] (7-day (168 hr)). Besides, the time until toxic in data set [2] (DIDS at 10 ppm) and in data set [3] (DIDS at 10 ppm) was 2 days throughout. For the same compound, the time to paralysis in data set [2] (free-living nematode) and in data set [3] (plant parasite nematode) was 2 days each time. In addition, the “toxicity (mortality) to nematodes” value in data set [3] (24 hr, 100 ug/ml (200 uM), in DMSO/tap water) was “paralytic/lethal”.

Turning to `CC(C)c1c(O)cc(C=Cc2ccccc2)cc1O` [DST, 3,5-dihydroxy-4-isopropylstilbene], the 24 hr lethality in data set [4] and in data set [5] was 100% in each case. Moreover, in data set [6], the “sensitivity to DST” value is “completely insensitive”.
